Measured values reported in ChEMBL document CHEMBL1687908, “Discovery of sulfated sterols from marine invertebrates as a new class of marine natural antagonists of farnesoid-X-receptor” (J Med Chem, 2011).
Calls of active or inactive are those of the source.

What was measured:
Format in all cases: functional, cell-based
[1] = target: T1, Bile acid receptor (Homo sapiens) (UniProt Q96RI1); assay: Antagonist activity at FXR in human HepG2 cells assessed as inhibition of CDCA-induced Cyp7A1 gene expression at 50 uM by real time PCR
T1 sequence (whole entry): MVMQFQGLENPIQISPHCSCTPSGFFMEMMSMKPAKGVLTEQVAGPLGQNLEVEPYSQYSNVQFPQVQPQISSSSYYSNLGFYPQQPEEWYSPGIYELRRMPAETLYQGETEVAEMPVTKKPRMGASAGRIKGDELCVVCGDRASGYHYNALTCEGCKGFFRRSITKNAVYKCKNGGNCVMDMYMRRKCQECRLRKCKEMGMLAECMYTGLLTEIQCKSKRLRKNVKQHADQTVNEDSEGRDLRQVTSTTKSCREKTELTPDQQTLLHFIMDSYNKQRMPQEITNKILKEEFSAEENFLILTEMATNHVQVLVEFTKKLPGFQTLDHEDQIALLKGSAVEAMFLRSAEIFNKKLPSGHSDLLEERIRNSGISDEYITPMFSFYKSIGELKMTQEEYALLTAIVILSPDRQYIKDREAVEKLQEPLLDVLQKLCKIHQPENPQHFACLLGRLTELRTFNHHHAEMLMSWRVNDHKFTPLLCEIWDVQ

[2] = target: T1, Bile acid receptor (Homo sapiens); assay: Antagonist activity at FXR in human HepG2 cells assessed as inhibition of CDCA-induced OSTbata gene expression at 50 uM by real time PCR
HepG2 = assay: Inhibition of CDCA-induced FXR expression in human HepG2 cells after 18 hrs by luminometric analysis
[3] = target: T1, Bile acid receptor (Homo sapiens); assay: Antagonist activity at FXR in human HepG2 cells assessed as inhibition of CDCA-induced OSTalpha gene expression at 50 uM by real time PCR
[4] = target: T1, Bile acid receptor (Homo sapiens); assay: Antagonist activity at FXR expressed in human HepG2 cells assessed as stabilization of the NCoR at the OSTalpha promoter at 50 uM after 18 hrs by chromatin immunoprecipitation
[5] = target: T1, Bile acid receptor (Homo sapiens); assay: Antagonist activity at FXR in human HepG2 cells assessed as inhibition of CDCA-induced BSEP gene expression at 50 uM by real time PCR

C[C@H](CO)[C@@H](C)CC[C@@H](COS(=O)(=O)O)[C@H]1CC[C@H]2[C@@H]3CC[C@@H]4[C@H](O)[C@H](OS(=O)(=O)O)CC[C@]4(C)[C@H]3CC[C@]12C
active: inhibition [1] | inhibition [2] | inhibition (HepG2) Dose-dependent effect | inhibition [3] | Activity [4] | inhibition [5]
